Source: patent US10351565B2, “Therapeutic compounds for pain and synthesis thereof” (priority 2015, dated 2019)
Values joined by “and” are separate entries in the source; they are usually repeats but may differ in a detail not shown here. Equal entries are not always repeated.

How the values were obtained:
neuropathic pain in mice [1] = experiment: Taxol mouse model of neuropathic pain, repeated daily administration; assay type: in vivo
Description: (§1) Table 7 summarizes the activity of Formula 1 in mice models of neuropathic pain following repeated daily administration using different routes of administration.

neuropathic pain in mice [2] = experiment: CCI mouse model of neuropathic pain, repeated daily administration; assay type: in vivo; details: for Dose of maximum activity: doses tested 150 mg/kg
Description: as §1

[3] = PO, 30 mg/kg, repeated daily administration
[4] = SC, doses tested 1, 3, 10 mg/kg, repeated daily administration
[5] = SC, 150 mg/kg, repeated daily administration

COc1ccc2cc(CN3[C@@H]4C[C@@H]5C[C@H]3[C@H](OC(=O)C(C)(C)C)C4N(C(=O)CC(F)(F)F)C5)ccc2c1 (stereo partly drawn) [Formula 1, (2S,3S,6R,7aR)-1-((6-methoxynaphthalen-2-yl)methyl)-4-(3,3,3-trifluoropropanoyl)octahydro-1H-2,6-methanopyrrolo[3,2-b]pyridin-3-yl pivalate]
Duration of activity at maximum effect (neuropathic pain in mice [1]; [3]): 24 H
Level of activity (% of maximum effect- baseline) (neuropathic pain in mice [1]; [3]): 100%
Peak of activity (T) (neuropathic pain in mice [1]; [3]): 2-24 H
Dose of maximum activity (neuropathic pain in mice [1]; PO, doses tested 30 mg/kg): <30 mg/kg
Dose of maximum activity (neuropathic pain in mice [1]; SC, doses tested 1, 3, 10 mg/kg): 1 mg/kg
Duration of activity at maximum effect (neuropathic pain in mice [1]; [4]): 24 h
Level of activity (% of maximum effect- baseline) (neuropathic pain in mice [1]; [4]): 100%

NCC1(CC(=O)O)CCCCC1 [Gabapentin]
Dose of maximum activity (neuropathic pain in mice [2]; IP): 150 mg/kg
Duration of activity at maximum effect (neuropathic pain in mice [2]; [5]): 4-6 H
Level of activity (% of maximum effect- baseline) (neuropathic pain in mice [2]; [5]): >100% and 64%
Peak of activity (T) (neuropathic pain in mice [2]; [5]): 2-3 H
Dose of maximum activity (neuropathic pain in mice [2]; SC): 150 mg/kg
Dose of maximum activity (neuropathic pain in mice [1]; PO, doses tested 150 mg/kg): 150 mg/kg
Dose of maximum activity (neuropathic pain in mice [1]; SC, doses tested 150 mg/kg): 150 mg/kg
